Our source for the inhibition, EC50 and IC50 values is ChEMBL document CHEMBL1139726, “Identification of novel inhibitors of UDP-Glc 4'-epimerase, a validated drug target for african sleeping sickness” (Bioorg Med Chem Lett, 2006).

As a reminder, the inhibition is the percentage by which the read-out fell short of the control. The term EC50 denotes the concentration at which the effect is half-maximal. For orientation: IC50 means the midpoint of a concentration-inhibition curve.

Test [1] deals with Trypanosoma brucei. The test can be described thus: Inhibition of Trypanosoma brucei GalE at 50 uM.
Test [2] deals with Trypanosoma brucei. The test can be described thus: Cytotoxicity against Trypanosoma brucei by Alamar blue assay. The class given is organism-based. On the technique in general: Resazurin is reduced to fluorescent resorufin, in cell work by metabolically active cells.
Test [3] concerns CHO-K1. The test can be described thus: Cytotoxicity against CHO-K1 cells by Alamar blue assay. It counts as cell-based. The note with it: Cricetulus griseus.
The target in test [4] is T1, UDP-glucose 4-epimerase (Homo sapiens, UniProt Q14376).
T1 sequence (Q14376 whole entry): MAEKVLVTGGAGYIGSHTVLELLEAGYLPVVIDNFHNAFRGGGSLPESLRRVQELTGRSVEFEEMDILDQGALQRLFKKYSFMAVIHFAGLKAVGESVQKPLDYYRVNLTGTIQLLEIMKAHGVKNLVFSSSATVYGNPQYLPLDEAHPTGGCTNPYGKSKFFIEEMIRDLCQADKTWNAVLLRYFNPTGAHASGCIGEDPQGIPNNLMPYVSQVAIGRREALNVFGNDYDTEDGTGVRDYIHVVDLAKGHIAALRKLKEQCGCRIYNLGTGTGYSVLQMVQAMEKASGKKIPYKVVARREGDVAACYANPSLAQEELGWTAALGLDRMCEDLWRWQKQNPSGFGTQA
The test can be described thus: Inhibition of human GalE by HPAEC assay.

Test [5] can be described thus: Inhibition of Trypanosoma brucei GalE by HPAEC assay.
A short description of test [6]: Inhibition of Trypanosoma brucei GalE after 1 hr by HPAEC assay.

Structures are written as SMILES. Bounds are passed on as bounds.

Regarding `CC/C(=C(/CC)c1ccc(O)cc1)c1ccc(O)cc1` [DIETHYLSTILBESTROL], in test [1], the inhibition was more than 75%. Also, the EC50 came to 2.8 µM in test [2] and 8.5 µM in test [3]. Besides, the figures for the IC50 in test [4] and in test [5] were 75 µM and 17 µM, respectively.
`C=C(CC)C(=O)c1ccc(OCC(=O)O)c(Cl)c1Cl` [ETHACRYNIC ACID] displayed an inhibition in test [1] of more than 75%. The figures for the EC50 in test [2] and in test [3] were 3.3 µM and 56 µM, respectively. For the same compound, the IC50 is 14 µM in test [4] and 3.1 µM in test [5].
For `O=c1c2ccccc2[se]n1-c1ccccc1` [EBSELEN] the same measures were more than 75%, 4.1 µM, 6.1 µM, 0.014 µM and 0.62 µM.
In the case of `O=C(NCCSSCCNC(=O)/C(Cc1ccc(O)c(Br)c1)=N/O)/C(Cc1ccc(O)c(Br)c1)=N/O` [PSAMMAPLIN A], the inhibition in test [1] is more than 75%. The figures for the 50% effective concentration (EC50) in test [2] and in test [3] were 2.6 µM and 0.9 µM, respectively. In addition, the IC50 in test [4] amounted to 3.6 µM; in test [5] it was 15 µM.
In test [1], `Clc1cc(Cl)c(OCC#CI)cc1Cl` [HALOPROGIN] yielded an inhibition of more than 75%. In addition, the EC50 in test [2] was found to be 0.3 µM; in test [3] it was 0.6 µM. The results for the IC50 in test [6] and in test [4] were more than 100 µM and 0.5 µM, respectively.
